Experimental data from patent US5216011A (priority 1989, dated 1993).
Where two headings read alike, the source gives them in different places.

What was measured:
[1] = Solution stability of mitomycin C in non-aqueous solvents (Table V); assay type: physicochemical
Description: ^a All solutions on test in amber vials and nitrogen purged.
^b The pH of these vehicles was adjusted to 7.0 with citric acid.
^c Dried over molecular sieve.

[2] = cited from earlier work; for stable for: 20-40 mcg/mL, room temperature; for degradation product: aqueous
[3] = Description: The effect of pretreatment of propylene glycol with sodium bicarbonate and carbon (Darco G-60) was investigated.
[4] = Stability of mitomycin C (5 mg/mL) in polyethylene glycols; assay type: physicochemical
[5] = Predicted stability of mitomycin C at different temperatures (aqueous degradation kinetics)
[6] = Pseudo first-order rate constants for degradation of mitomycin C in neat propylene glycol; assay type: physicochemical
Procedure: ^a Data were taken from Table VI. m:month.
^b Predicted from 40° C. data.

[7] = neutral pH, unbuffered solution, Ref. 6; cited from earlier work
[8] = Apparent pH of propylene glycol before and after sodium bicarbonate treatment; assay type: physicochemical; details: after 1:10 dilution with water
Procedure: Into a 50 mL Erlenmeyer flask containing 25 mL of neat propylene glycol was added 25 mg sodium bicarbonate. The mixture was stirred for 10 minutes. After standing for 30 minutes, the mixture was then filtered through a Millex-SR filter (Millipore Corp., P/N#SLSR025NS) to remove undissolved sodium bicarbonate. Apparent pH of propylene glycol before and after the treatment (after 1:10 dilution with water) was measured and were 6.5 and 8.4, respectively.

**Q.** Which Stability ([1]; 2-pyrrolidone (2-Pyr)) does the source give for CO[C@@]12[C@H](COC(N)=O)C3=C(C(=O)C(C)=C(N)C3=O)N1C[C@@H]1N[C@@H]12 [mitomycin C] here?
**A.** Its Stability is “Slightly lower stability”.

**Q.** What about the Stability ([1]; DMA, NMP and PG) of the same molecule?
**A.** Its Stability is “Excellent stability”.

**Q.** And the Stability ([1]; ethanol)?
**A.** The Stability was “surprisingly poor”.

**Q.** What about the “Effect of addition of 2% water on stability” value ([1]; propylene glycol, vs neat solvent) of the same molecule?
**A.** The value was “appeared to increase stability”.

**Q.** And the “stable for” value ([2]; 0.9% sodium chloride injection)?
**A.** The value was 12 h.

**Q.** And the “stable for” value ([2]; 5% dextrose injection)?
**A.** Its value is 3 h.

**Q.** And the “pH of maximum stability” value ([2]; aqueous solutions)?
**A.** The value was 7-8.

**Q.** And the degradation product ([2]; pH above 7)?
**A.** Its degradation product is “hydrolyzed to 7-hydroxymitosane”.

**Q.** And the degradation product ([2]; pH below 7)?
**A.** Its degradation product is “converted to 1-hydroxy-2,7-diaminomitosanes”.

**Q.** What about the “time to loss of 10% potency” value ([2]; in water at 25° C.) of the same molecule?
**A.** Its value is “about 40 days”.

**Q.** And the “stable for” value ([2]; sodium/lactate injection)?
**A.** Its value is 24 h.

**Q.** What about the “Effect of air vs. nitrogen on stability” value ([3]; PG and PG/water, 25° C.) of the same molecule?
**A.** The value was “more stable in the presence of nitrogen”.

**Q.** And the Stability ([3]; all PG formulations, 25° C. and 4° C.)?
**A.** The Stability was “Excellent stability”.

**Q.** And the Stability ([3]; glycerin)?
**A.** Its Stability is “poor stability”.

**Q.** What about the “Effect of 5% and 10% water on stability” value ([3]; propylene glycol) of the same molecule?
**A.** Its value is “do not adversely affect, and may actually improve, mitomycin C stability”.

**Q.** What about the “Effect of pretreatment of propylene glycol with carbon (Darco G-60) on stability” value ([3]; propylene glycol) of the same molecule?
**A.** The value was “did not significantly improve mitomycin C stability”.

**Q.** What about the “Effect of pretreatment of propylene glycol with sodium bicarbonate on stability” value ([3]; propylene glycol) of the same molecule?
**A.** Its value is “significantly improved”.

**Q.** And the “Effect of three antioxidants on stability” value ([3]; propylene glycol, vs control solution)?
**A.** The value was “do not significantly improve mitomycin C stability”.

**Q.** What about the Stability ([4]; PEG 200, 300 and 400) of the same molecule?
**A.** The Stability was “poor and variable stability”.

**Q.** What about the “Effect of purging with nitrogen on stability” value ([4]; PEG 400) of the same molecule?
**A.** Its value is “improved stability”.

**Q.** And the “Effect of pH adjustment to 6.2 on stability” value ([4]; PEG 400, sodium glycodeoxycholate)?
**A.** Its value is “unsuccessful”.

**Q.** And the “Effect of propyl gallate on stability” value ([4]; PEG, nitrogen purged solutions)?
**A.** Its value is “not to improve stability”.

**Q.** And the t50 ([5]; 5° C., predicted)?
**A.** The t50 was 7.6 y.

**Q.** What about the t90 ([5]; 5° C., predicted) of the same molecule?
**A.** Its t90 is 420 days.

**Q.** What about the decomposition rate constant ([5]; 5° C., predicted from E act) of the same molecule?
**A.** Its decomposition rate constant is 1.04e-05 h⁻¹.

**Q.** And the “predicted t90” value ([5]; 5° C., unbuffered aqueous solution)?
**A.** Its value is “about one”.

**Q.** And the t50 ([5]; 25° C.)?
**A.** Its t50 is 0.7 y.

**Q.** What about the t90 ([5]; 25° C.) of the same molecule?
**A.** Its t90 is 40 days.

**Q.** What about the decomposition rate constant ([5]; 25° C., 0.05M phosphate buffer, pH 7.43) of the same molecule?
**A.** Its decomposition rate constant is 0.00011 h⁻¹.

**Q.** And the “time until potency falls to 90% of its original value” ([5]; in water, 25° C.)?
**A.** Its value is 40 days.

**Q.** And the “Arrhenius activation energy, Ea” value ([6]; 4-40° C.)?
**A.** Its value is 16.5 kcal/mol.

**Q.** And the “time for which potency will remain greater than 90% of initial” value ([6]; 4° C.)?
**A.** Its value is “more than 30 months”.

**Q.** What about the t90 ([6]; 4 °C) of the same molecule?
**A.** Its t90 is 38 months.

**Q.** And the “10^2 ko (pseudo first-order rate constant)” value (from here on “10^2 ko”) ([6]; 4 °C (277 K), m: month)?
**A.** Its value is 0.276 m^-1.

**Q.** And the “t90 predicted from 40° C. data” value ([6]; 4 °C, m: month)?
**A.** The value was 39 m.

**Q.** And the t90 ([6]; 25 °C)?
**A.** Its t90 is 3.9 months.

**Q.** And the “10^2 ko” value ([6]; 25 °C (298 K), m: month)?
**A.** The value was 2.69 m^-1.

**Q.** And the t90 ([6]; 40 °C)?
**A.** Its t90 is 37 days.

**Q.** What about the “10^2 ko” value ([6]; 40 °C (313 K), m: month) of the same molecule?
**A.** The value was 8.40 m^-1.

**Q.** What about the “E act (activation energy for decomposition)” value [7] of the same molecule?
**A.** The value was 19.4 kcal/mol.

**Q.** Which results are given for CC(O)CO (stereo not drawn) [propylene glycol]?
**A.** Apparent pH after treatment ([8]; after sodium bicarbonate treatment): 8.4; Apparent pH before treatment ([8]; before sodium bicarbonate treatment): 6.5
